From the supplement of paper PMC10307832

Experiments:
Test in all cases: relative viability (nuclei count vs DMSO), 5 days (fraction); higher = more cells survive
[1] = compound: C=CC(=O)Nc1cc(-n2c(=O)ccc3cnc4ccc(-c5ccc(NS(C)(=O)=O)cc5)cc4c32)ccc1C [BMX-IN-1] + Cc1cc(Nc2cc(N3CCN(C)CC3)nc(Sc3ccc(NC(=O)C4CC4)cc3)n2)n[nH]1 [Tozasertib] (partner 0.1 µM)
Summary of the method: (§1)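 Nuclei were stained with Hoechst during a one-step fixation (final 0.05% Triton X-100, 1% formaldehyde, 1 ug/ml Hoechst) carried out 5 days after dosing, then counted on 4× images. The cells, lung cancer lines in 1536-well plates, had been dosed by pin tool the day after seeding with one drug alone or a fixed anchor-drug dose plus five library-drug doses (not always all listed) in √10 steps. Relative viability is the nuclei count in treated wells divided by that in vehicle wells, and each value is the median of duplicate plates.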

[2] = compound: C=CCc1cccc(/C=N/NC(=O)CN2CCN(Cc3ccccc3)CC2)c1O [PAC-1] + C[C@@H](Oc1cc(-c2cnn(C3CCNCC3)c2)cnc1N)c1c(Cl)ccc(F)c1Cl [Crizotinib] (partner 1 µM)
Summary of the method: as §1

[3] = compound: C=CCc1cccc(/C=N/NC(=O)CN2CCN(Cc3ccccc3)CC2)c1O [PAC-1] + CS(=O)(=O)CCNCc1ccc(-c2ccc3ncnc(Nc4ccc(OCc5cccc(F)c5)c(Cl)c4)c3c2)o1 [Lapatinib] (partner 2 µM)
Summary of the method: as §1

[4] = compound: C=CC(=O)N1CCC[C@@H](n2nc(-c3ccc(Oc4ccccc4)cc3)c3c(N)ncnc32)C1 [Ibrutinib] + Cc1nc(Nc2ncc(C(=O)Nc3c(C)cccc3Cl)s2)cc(N2CCN(CCO)CC2)n1 [Dasatinib] (partner 0.075 µM)
Summary of the method: as §1

| Cell Line | relative viability ([1]; first compound 0.02 µM) | relative viability ([1]; first compound 0.2 µM) | relative viability ([1]; first compound 0.6325 µM) | relative viability ([1]; first compound 2 µM) | relative viability ([2]; first compound 0.02 µM) | relative viability ([2]; first compound 0.06325 µM) | relative viability ([2]; first compound 0.2 µM) | relative viability ([2]; first compound 2 µM) | relative viability ([3]; first compound 0.02 µM) | relative viability ([3]; first compound 0.06325 µM) | relative viability ([3]; first compound 0.2 µM) | relative viability ([3]; first compound 2 µM) | relative viability ([4]; first compound 0.01581 µM) | relative viability ([4]; first compound 0.05 µM) | relative viability ([4]; first compound 0.1581 µM) | relative viability ([4]; first compound 0.5 µM) | relative viability ([4]; first compound 0.005 µM) |
| --- | --- | --- | --- | --- | --- | --- | --- | --- | --- | --- | --- | --- | --- | --- | --- | --- | --- |
| LK-2 | 0.223 | 0.173 | 0.161 | 0.184 | 0.231 | 0.233 | 0.234 | 0.289 | 0.77 | 1.04 | 0.884 | 0.932 | 0.273 | 0.278 | 0.224 | 0.293 |  |
| NCI-H441 | 0.58 | 0.873 | 0.761 | 0.846 | 0.725 | 0.77 | 0.714 | 0.655 |  |  |  |  | 0.649 | 0.729 | 0.571 | 0.55 | 0.638 |
| NCI-H522 | 0.573 | 0.666 | 0.605 | 0.532 |  |  |  |  |  |  |  |  | 0.584 | 0.731 | 0.773 | 0.723 | 0.744 |
| NCI-H1299 |  |  |  |  | 0.936 | 0.94 | 0.937 | 0.891 | 0.981 | 0.967 | 0.975 | 0.949 |  |  |  |  |  |
| NCI-H1395 | 0.832 | 0.793 | 0.701 | 0.715 |  |  |  |  | 1.12 | 1 | 0.881 | 1.01 | 0.401 | 0.383 | 0.392 | 0.417 | 0.419 |
| NCI-H1563 |  |  |  |  | 0.851 | 0.801 | 0.784 | 0.969 | 0.967 | 0.91 | 1.07 | 1.01 | 0.456 | 0.507 | 0.46 | 0.415 | 0.431 |
| NCI-H1623 | 0.494 | 0.465 | 0.447 | 0.394 |  |  |  |  |  |  |  |  | 0.515 | 0.461 | 0.316 | 0.244 | 0.604 |
| NCI-H1648 | 0.447 | 0.47 | 0.426 | 0.459 |  |  |  |  |  |  |  |  |  |  |  |  |  |
| NCI-H1703 |  |  |  |  | 0.588 | 0.897 | 0.851 | 0.622 | 0.901 | 1.31 | 0.906 | 0.952 |  |  |  |  |  |
| NCI-H1792 |  |  |  |  | 0.988 | 1.04 | 1.03 | 0.909 | 0.978 | 0.91 | 0.923 | 0.934 | 0.759 | 0.755 |  | 0.685 |  |
| NCI-H1793 | 0.311 | 0.285 | 0.311 | 0.303 |  |  |  |  | 0.48 | 0.753 | 0.62 | 0.652 | 0.371 | 0.358 | 0.389 | 0.303 |  |
| NCI-H2342 | 0.454 | 0.526 | 0.494 | 0.422 |  |  |  |  |  |  |  |  | 0.315 | 0.294 | 0.279 | 0.276 | 0.314 |
| SW 900 | 0.425 | 0.682 | 0.606 | 0.679 |  |  |  |  |  |  |  |  |  | 0.683 | 0.554 | 0.578 |  |
